From patent publication US12077503B2, “Substituted cyclic amides and their use as herbicides” (FMC CORPORATION, priority 2015, dated 2024)
Like-named read-outs stand apart in the source and are kept apart here.

How the values were obtained:
Format in all cases: in vivo
[1] = system: barnyardgrass (Echinochloa crus-galli); assay: Test B flooded paddy test; settings: Echinochloa crus-galli, 250 g ai/ha, Flood; 0 to 100 scale where 0 is no effect and 100 is complete control; read-out: Barnyardgrass plant response rating
How it was run: (§1)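 Rating scale 0–100 (visual, vs untreated controls) after a 13–15 d greenhouse period; application to the flood layer, 3 cm above soil and maintained; plants at 2-leaf stage when treated.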

[2] = system: sedge, umbrella (small-flower umbrella sedge, Cyperus difformis); assay: Test B flooded paddy test; settings: Cyperus difformis, 250 g ai/ha, Flood; 0 to 100 scale where 0 is no effect and 100 is complete control; read-out: Sedge, Umbrella plant response rating
How it was run: as §1

[3] = system: rice (Oryra sativa); assay: Test B flooded paddy test; settings: Oryza sativa, 250 g ai/ha, Flood; 0 to 100 scale where 0 is no effect and 100 is complete control; read-out: Rice plant response rating
How it was run: as §1

[4] = system: ducksalad (Heteranthera limosa); assay: Test B flooded paddy test; settings: Heteranthera limosa, 250 g ai/ha, Flood; 0 to 100 scale where 0 is no effect and 100 is complete control; read-out: Ducksalad plant response rating
How it was run: as §1

[5] = system: barnyardgrass (Echinochloa crus-galli); assay: Test A postemergence; settings: Echinochloa crus-galli, post-emergence, 240 h; for pest or weed control at 125 g/ha: 125 g ai/ha; for pest or weed control at 500 g/ha: 500 g ai/ha, visual injury, 0 to 100 scale (0 no effect, 100 complete control), approx. 10 d, read-out: Plant response rating, Barnyardgrass
How it was run: (§2)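 Ratings of 0 (no effect) to 100 (complete control) come from visual comparison with untreated controls roughly 10 d after treatment. Test chemicals, formulated in a non-phytotoxic solvent mixture with surfactant, were applied either as a preemergence directed soil spray on seeded soil or postemergence to one- to two-leaf plants 2 to 10 cm tall.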

[6] = system: Galium (catchweed bedstraw, Galium aparine); assay: Test A postemergence; settings: Galium, post-emergence, 240 h; for pest or weed control at 125 g/ha: 125 g ai/ha, read-out: Galium plant response rating (0 to 100 scale); for pest or weed control at 500 g/ha: 500 g ai/ha, visual injury, 0 to 100 scale (0 no effect, 100 complete control), approx. 10 d, read-out: Plant response rating, Galium
How it was run: as §2

[7] = system: ragweed (common ragweed, Ambrosia elatior); assay: Test A postemergence; settings: Ambrosia artemisiifolia, post-emergence, 240 h; for pest or weed control at 125 g/ha: 125 g ai/ha, read-out: Ragweed plant response rating (0 to 100 scale); for pest or weed control at 500 g/ha: 500 g ai/ha, visual injury, 0 to 100 scale (0 no effect, 100 complete control), approx. 10 d, read-out: Plant response rating, Ragweed
How it was run: as §2

[8] = system: pigweed (Amaranthus retroflexus); assay: Test A postemergence; settings: Amaranthus retroflexus, post-emergence, 240 h; for pest or weed control at 125 g/ha: 125 g ai/ha, read-out: Pigweed plant response rating (0 to 100 scale); for pest or weed control at 500 g/ha: 500 g ai/ha, visual injury, 0 to 100 scale (0 no effect, 100 complete control), approx. 10 d, read-out: Plant response rating, Pigweed
How it was run: as §2

[9] = system: ryegrass, Italian (Italian ryegrass, Lolium multiflorum); assay: Test A postemergence; settings: Lolium multiflorum, post-emergence, 240 h; for pest or weed control at 125 g/ha: 125 g ai/ha, read-out: Ryegrass, Italian plant response rating (0 to 100 scale); for pest or weed control at 500 g/ha: 500 g ai/ha, visual injury, 0 to 100 scale (0 no effect, 100 complete control), approx. 10 d, read-out: Plant response rating, Ryegrass, Italian
How it was run: as §2

[10] = system: blackgrass (Alopecurus myosuroides); assay: Test A postemergence; settings: Alopecurus myosuroides, post-emergence, 240 h; for pest or weed control at 125 g/ha: 125 g ai/ha, read-out: Blackgrass plant response rating (0 to 100 scale); for pest or weed control at 500 g/ha: 500 g ai/ha, visual injury, 0 to 100 scale (0 no effect, 100 complete control), approx. 10 d, read-out: Plant response rating, Blackgrass
How it was run: as §2

[11] = system: wheat (Triticum aestivum); assay: Test A postemergence; settings: Triticum aestivum, post-emergence, 240 h, Postemergence; for plant injury at 500 g/ha: 500 g ai/ha, visual injury, 0 to 100 scale (0 no effect, 100 complete control), approx. 10 d, read-out: Plant response rating, Wheat; for plant injury at 125 g/ha: 125 g ai/ha, visual rating about 10 d after treatment, read-out: Wheat plant response rating (0 to 100 scale)
How it was run: as §2

[12] = system: Kochia (Kochia scoparia); assay: Test A postemergence; settings: Bassia scoparia, post-emergence, 240 h; for pest or weed control at 125 g/ha: 125 g ai/ha, read-out: Kochia plant response rating (0 to 100 scale); for pest or weed control at 500 g/ha: 500 g ai/ha, visual injury, 0 to 100 scale (0 no effect, 100 complete control), approx. 10 d, read-out: Plant response rating, Kochia
How it was run: as §2

[13] = system: giant foxtail (Setaria faberii); assay: Test A postemergence; settings: Setaria faberi, post-emergence, 240 h; for pest or weed control at 125 g/ha: 125 g ai/ha, read-out: Foxtail, Giant plant response rating (0 to 100 scale); for pest or weed control at 500 g/ha: 500 g ai/ha, visual injury, 0 to 100 scale (0 no effect, 100 complete control), approx. 10 d, read-out: Plant response rating, Foxtail, Giant
How it was run: as §2

[14] = system: corn (Zea mays); assay: Test A postemergence; settings: Zea mays, post-emergence, 240 h; for plant injury at 125 g/ha: 125 g ai/ha, read-out: Corn plant response rating (0 to 100 scale); for Corn plant response rating (crop injury, 0 = no effect, 100 = complete kill) at 500 g/ha: 500 g ai/ha, visual injury, 0 to 100 scale (0 no effect, 100 complete control), approx. 10 d
How it was run: as §2

[15] = postemergence, visual injury vs untreated controls after approx. 10 d, 0 = no effect, 100 = complete control
[16] = Postemergence, visual rating about 10 d after treatment, read-out: Barnyardgrass plant response rating (0 to 100 scale, 0 no effect, 100 complete control)
[17] = Postemergence, visual rating about 10 d after treatment

Structure (SMILES) | pest or weed control at 250 g/ha [1] [%] | pest or weed control at 250 g/ha [2] [%] | pest or weed control at 250 g/ha [3] [%] | pest or weed control at 250 g/ha [4] [%] | pest or weed control at 500 g/ha ([5]; Postemergence) [%] | pest or weed control at 500 g/ha ([6]; Postemergence) [%] | pest or weed control at 500 g/ha ([7]; Postemergence) [%] | pest or weed control at 500 g/ha ([8]; Postemergence) [%] | pest or weed control at 500 g/ha ([9]; Postemergence) [%] | pest or weed control at 500 g/ha ([10]; Postemergence) [%] | plant injury at 500 g/ha [11] [%] | pest or weed control at 500 g/ha ([12]; Postemergence) [%] | pest or weed control at 500 g/ha ([13]; Postemergence) [%] | Corn plant response rating (crop injury, 0 = no effect, 100 = complete kill) at 500 g/ha ([14]; Postemergence) [%] | pest or weed control at 125 g/ha [5, 16] [%] | pest or weed control at 125 g/ha [6, 17] [%] | pest or weed control at 125 g/ha [7, 17] [%] | pest or weed control at 125 g/ha [8, 17] [%] | pest or weed control at 125 g/ha [9, 17] [%] | pest or weed control at 125 g/ha [10, 17] [%] | further results
CSc1ccccc1NC(=O)[C@H]1C(=O)NC[C@@H]1c1ccc2c(c1)OCO2 [Compound 1257] | 20 | 0 | 0 | 0 | 0 | 0 | 0 | 0 | 0 | 0 | 0 | 0 | 0 | 0 | – | – | – | – | – | – | pest or weed control at 125 g/ha ([5]; postemergence, visual injury vs untreated controls after approx. 10 d, 0 = no effect, 100 = complete control, read-out: Barnyardgrass plant response rating (0 to 100 scale)): 0%; pest or weed control at 125 g/ha [6, 15]: 0%; pest or weed control at 125 g/ha [7, 15]: 0%; pest or weed control at 125 g/ha [8, 15]: 0%; pest or weed control at 125 g/ha [9, 15]: 0%; pest or weed control at 125 g/ha [10, 15]: 0%; pest or weed control at 125 g/ha [12, 15]: 0%; pest or weed control at 125 g/ha [13, 15]: 0%; plant injury at 125 g/ha [14, 15]: 0%
COc1cc([C@H]2CN(C)C(=O)[C@@H]2C(=O)Nc2cccc(F)c2F)ccc1F [Compound 1299] | 65 | 40 | 20 | 85 | 90 | 50 | 20 | 0 | 60 | 60 | 40 | 60 | 90 | 80 | 90 | 40 | 0 | 0 | 20 | 20 | plant injury at 125 g/ha [11]: 30%; pest or weed control at 125 g/ha [12, 17]: 0%; pest or weed control at 125 g/ha [13, 17]: 90%; plant injury at 125 g/ha [14, 17]: 40%
COc1cc([C@H]2CN(C)C(=O)[C@@H]2C(=O)Nc2ccccc2SC)ccc1F [Compound 1301] | 0 | 0 | 0 | 20 | 90 | 60 | 0 | 0 | 0 | 0 | 0 | 50 | 20 | 0 | 20 | 20 | 0 | 0 | 0 | 0 | plant injury at 125 g/ha [11]: 0%; pest or weed control at 125 g/ha [12, 17]: 0%; pest or weed control at 125 g/ha [13, 17]: 20%; plant injury at 125 g/ha [14, 17]: 0%
Cc1c(F)cccc1NC(=O)[C@H]1C(=O)NC[C@@H]1c1cccc2c1OC(F)(F)O2 [Compound 1305] | 20 | 0 | 0 | 70 | 80 | 0 | 0 | 0 | 0 | 0 | 20 | 0 | 90 | 0 | 60 | 0 | 0 | 0 | 0 | 0 | plant injury at 125 g/ha [11]: 0%; pest or weed control at 125 g/ha [12, 17]: 0%; pest or weed control at 125 g/ha [13, 17]: 80%; plant injury at 125 g/ha [14, 17]: 0%
